One assay addresses GST-MCL-1 (Homo sapiens, UniProt Q07820). The assay is described as follows: TR-FRET MCL-1 binding assay (competition with probe F-Bak). The method in brief: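 Displacement of F-Bak from GST-MCL-1 is detected by time-resolved FRET with a Tb-labelled anti-GST antibody, with excitation 340/35 nm and emission 520/525 and 495/510 nm, after 2 hours at room temperature. Compounds were titrated in 11 three-fold steps starting at 25 μM final, in buffer alone or in 10% HS.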
A general note: Time-resolved FRET reads energy transfer from a long-lived donor to a nearby acceptor.

Assay [1] relates to AMO-1 human multiple myeloma tumor cell line. The assay is described as follows: AMO-1 cell viability assay (CellTiter-Glo, 24 hours). Conditions: Homo sapiens, AMO1, 24 h, read-out: AMO-1 Viability IC50 (μM, 10% FBS), 10% FBS, 24 hours of compound treatment. The format is cell-based. In general terms: In ATP-based viability assays light output follows the ATP content of the culture.

For assay [2], the system named is NCI-H929 human multiple myeloma tumor cell line. The assay is described as follows: NCI-H929 cell viability assay (CellTiter-Glo, 24 hours). Type of assay: cell-based. The conditions noted are these: Homo sapiens, NCI-H929, 24 h, read-out: H929 Viability IC50 (μM, 10% FBS), 10% FBS, 24 hours of compound treatment.
The mark [3] stands for this setting: MCL-1 Binding Ki (nM, 10% HS), in the presence of 10% HS (human serum).
The mark [4] stands for this setting: without HS, read-out: MCL-1 Binding Ki.

The results in this text go back to patent publication US20250313572A1, “MACROCYCLIC MCL-1 INHIBITORS AND METHODS OF USE” (AbbVie Inc., priority 2017, published 2025).

SMILES strings stand for the structures. Like-named read-outs stand apart in the source and are kept apart here.

Sequence of GST-MCL-1 (Q07820 whole entry): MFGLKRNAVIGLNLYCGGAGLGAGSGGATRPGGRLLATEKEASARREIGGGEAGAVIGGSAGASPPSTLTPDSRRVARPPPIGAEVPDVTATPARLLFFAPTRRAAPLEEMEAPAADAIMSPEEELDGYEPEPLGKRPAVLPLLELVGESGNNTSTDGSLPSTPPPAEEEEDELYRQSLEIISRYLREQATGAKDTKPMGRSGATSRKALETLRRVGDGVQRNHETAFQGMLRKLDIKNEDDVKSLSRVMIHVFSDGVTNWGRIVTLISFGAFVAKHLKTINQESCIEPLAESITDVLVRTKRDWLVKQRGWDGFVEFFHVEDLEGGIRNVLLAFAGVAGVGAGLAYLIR

`COCCOCCOCCN(CCOCCOCCOC)c1nccc(COc2ccc3cc2C[C@H](C(=O)O)Oc2ncnc4sc(-c5ccc(F)cc5)c(c24)-c2c(C)c(Cl)c(c(Cl)c2C)O[C@H](CN2CCN(C)CC2)CO3)n1` [Example 93, (7R,16R)-10-{[2-(bis{2-[2-(2-methoxyethoxy)ethoxy]ethyl}amino)pyrimidin-4-yl]methoxy}-19,23-dichloro-1-(4-fluorophenyl)-20,22-dimethyl-16-[(4-methylpiperazin-1-yl)methyl]-7,8,15,16-tetrahydro-18,21-etheno-13,9-(metheno)-6,14,17-trioxa-2-thia-3,5-diazacyclononadeca[1,2,3-cd]indene-7-carboxylic Acid]: the Ki turned out to be 4.34 nM at GST-MCL-1 (setting [3]) and 0.748 nM at GST-MCL-1 (setting [4]). Besides, the IC50 in assay [1] came to 5.53 nM; in assay [2], 4.24 nM.

As to `COCCOCCOCCOCC1CN(c2nccc(COc3ccc4cc3C[C@H](C(=O)O)Oc3ncnc5sc(-c6ccc(F)cc6)c(c35)-c3c(C)c(Cl)c(c(Cl)c3C)O[C@H](CN3CCN(C)CC3)CO4)n2)C1` [Example 94, (7R,16R)-19,23-dichloro-1-(4-fluorophenyl)-20,22-dimethyl-16-[(4-methylpiperazin-1-yl)methyl]-10-({2-[3-(2,5,8,11-tetraoxadodecan-1-yl)azetidin-1-yl]pyrimidin-4-yl}methoxy)-7,8,15,16-tetrahydro-18,21-etheno-9,13-(metheno)-6,14,17-trioxa-2-thia-3,5-diazacyclononadeca[1,2,3-cd]indene-7-carboxylic Acid], the Ki amounted to 1.08 nM at GST-MCL-1 (setting [3]) and 0.181 nM at GST-MCL-1 (setting [4]). The results for the IC50 in assay [1] and in assay [2] were 2.03 nM and 1.84 nM, respectively.

Take `COCCOCCOC[C@]1(F)CC[C@@H](c2nccc(COc3ccc4cc3C[C@H](C(=O)O)Oc3ncnc5sc(-c6ccc(F)cc6)c(c35)-c3c(C)c(Cl)c(c(Cl)c3C)O[C@H](CN3CCN(C)CC3)CO4)n2)CC1` [Example 96, (7R,16R)-19,23-dichloro-10-({2-[(1s,4s)-4-fluoro-4-{[2-(2-methoxyethoxy)ethoxy]methyl}cyclohexyl]pyrimidin-4-yl}methoxy)-1-(4-fluorophenyl)-20,22-dimethyl-16-[(4-methylpiperazin-1-yl)methyl]-7,8,15,16-tetrahydro-18,21-etheno-13,9-(metheno)-6,14,17-trioxa-2-thia-3,5-diazacyclononadeca[1,2,3-cd]indene-7-carboxylic Acid]: the Ki is 0.037 nM at GST-MCL-1 (setting [3]) and 0.003 nM at GST-MCL-1 (setting [4]). The IC50 in assay [1] amounted to 0.287 nM; in assay [2], 0.259 nM.

In the case of `COCCOCCOCCOc1cccc(COc2ccc3cc2C[C@H](C(=O)O)Oc2ncnc4sc(-c5ccc(F)cc5)c(c24)-c2c(C)c(Cl)c(c(Cl)c2C)O[C@H](CN2CCN(C)CC2)CO3)n1` [Example 99, (7R,16R)-19,23-dichloro-1-(4-fluorophenyl)-10-[(6-{2-[2-(2-methoxyethoxy)ethoxy]ethoxy}pyridin-2-yl)methoxy]-20,22-dimethyl-16-[(4-methylpiperazin-1-yl)methyl]-7,8,15,16-tetrahydro-18,21-etheno-9,13-(metheno)-6,14,17-trioxa-2-thia-3,5-diazacyclononadeca[1,2,3-cd]indene-7-carboxylic Acid], the Ki on GST-MCL-1 (setting [3]) was determined as 6.17 nM; on GST-MCL-1 (setting [4]), 0.543 nM. The values for the IC50 in assay [1] and in assay [2] were 0.655 nM and 2.69 nM, respectively.

As for `Cc1c(Cl)c2c(Cl)c(C)c1-c1c(-c3ccc(F)cc3)sc3ncnc(c13)O[C@@H](C(=O)O)Cc1cc(ccc1OCc1ccnc(C3(COCCOC[C@H]4COCCO4)CCCCC3)n1)OC[C@@H](CN1CCN(C)CC1)O2` [Example 102, (7R,16R)-19,23-dichloro-10-[(2-{1-[(2-{[(2R)-1,4-dioxan-2-yl]methoxy}ethoxy)methyl]cyclohexyl}pyrimidin-4-yl)methoxy]-1-(4-fluorophenyl)-20,22-dimethyl-16-[(4-methylpiperazin-1-yl)methyl]-7,8,15,16-tetrahydro-18,21-etheno-13,9-(metheno)-6,14,17-trioxa-2-thia-3,5-diazacyclononadeca[1,2,3-cd]indene-7-carboxylic Acid], the results for the Ki at GST-MCL-1 (setting [3]) and at GST-MCL-1 (setting [4]) were 3.27 nM and 0.229 nM, respectively. In addition, the IC50 in assay [1] was found to be 0.29 nM; in assay [2] it was 0.835 nM.

In the case of `Cc1c(Cl)c2c(Cl)c(C)c1-c1c(-c3ccc(F)cc3)sc3ncnc(c13)O[C@@H](C(=O)O)Cc1cc(ccc1OCc1ccnc(N3CCO[C@H](COCCOCC4COCCO4)C3)n1)OC[C@@H](CN1CCN(C)CC1)O2` (stereo partly drawn) [Example 103, (7R,16R)-19,23-dichloro-10-({2-[(2S)-2-({2-[(1,4-dioxan-2-yl)methoxy]ethoxy}methyl)morpholin-4-yl]pyrimidin-4-yl}methoxy)-1-(4-fluorophenyl)-20,22-dimethyl-16-[(4-methylpiperazin-1-yl)methyl]-7,8,15,16-tetrahydro-18,21-etheno-13,9-(metheno)-6,14,17-trioxa-2-thia-3,5-diazacyclononadeca[1,2,3-cd]indene-7-carboxylic Acid], the Ki at GST-MCL-1 (setting [3]) is 0.172 nM; on GST-MCL-1 (setting [4]), 0.033 nM. In addition, the IC50 is 0.281 nM in assay [1] and 0.578 nM in assay [2].

With `COCCOCCOCCOc1cccc(-c2nccc(COc3ccc4cc3C[C@H](C(=O)O)Oc3ncnc5sc(-c6ccc(F)cc6)c(c35)-c3c(C)c(Cl)c(c(Cl)c3C)O[C@H](CN3CCN(C)CC3)CO4)n2)c1` [Example 104, (7R,16R)-19,23-dichloro-1-(4-fluorophenyl)-10-{[2-(3-{2-[2-(2-methoxyethoxy)ethoxy]ethoxy}phenyl)pyrimidin-4-yl]methoxy}-20,22-dimethyl-16-[(4-methylpiperazin-1-yl)methyl]-7,8,15,16-tetrahydro-18,21-etheno-13,9-(metheno)-6,14,17-trioxa-2-thia-3,5-diazacyclononadeca[1,2,3-cd]indene-7-carboxylic Acid], the Ki at GST-MCL-1 (setting [3]) came to 0.089 nM; on GST-MCL-1 (setting [4]), 0.009 nM. For the same compound, the IC50 in assay [1] is 0.0488 nM; in assay [2], 0.0557 nM.

Take `Cc1c(Cl)c2c(Cl)c(C)c1-c1c(-c3ccc(F)cc3)sc3ncnc(c13)O[C@@H](C(=O)O)Cc1cc(ccc1OCc1ccnc(-c3ccc(OCC4COCCOCCOCCOCCO4)cc3)n1)OC[C@@H](CN1CCN(C)CC1)O2` (stereo partly drawn) [Example 107, (7R,16R)-19,23-dichloro-1-(4-fluorophenyl)-20,22-dimethyl-16-[(4-methylpiperazin-1-yl)methyl]-10-[(2-{4-[(1,4,7,10,13-pentaoxacyclopentadecan-2-yl)methoxy]phenyl}pyrimidin-4-yl)methoxy]-7,8,15,16-tetrahydro-18,21-etheno-13,9-(metheno)-6,14,17-trioxa-2-thia-3,5-diazacyclononadeca[1,2,3-cd]indene-7-carboxylic Acid]: the figures for the Ki on GST-MCL-1 (setting [3]) and on GST-MCL-1 (setting [4]) were 0.412 nM and 0.026 nM, respectively. Moreover, the IC50 was found to be 1.47 nM in assay [1] and 0.552 nM in assay [2].

`COCCOCCN(CCOCCOC)c1nccc(COc2ccc3cc2C[C@H](C(=O)O)Oc2ncnc4sc(-c5ccc(F)cc5)c(c24)-c2c(C)c(Cl)c(c(Cl)c2C)O[C@H](CN2CCN(C)CC2)CO3)n1` [Example 108, (7R,16R)-10-[(2-{bis[2-(2-methoxyethoxy)ethyl]amino}pyrimidin-4-yl)methoxy]-19,23-dichloro-1-(4-fluorophenyl)-20,22-dimethyl-16-[(4-methylpiperazin-1-yl)methyl]-7,8,15,16-tetrahydro-18,21-etheno-13,9-(metheno)-6,14,17-trioxa-2-thia-3,5-diazacyclononadeca[1,2,3-cd]indene-7-carboxylic Acid]: the Ki on GST-MCL-1 (setting [3]) worked out at 6.62 nM; at GST-MCL-1 (setting [4]), 1.08 nM. Moreover, the IC50 in assay [1] was found to be 3.43 nM; in assay [2] it was 4.17 nM.

As for `COCCOCCOCCOCCN(CCOCCOCCOCCOC)c1nccc(COc2ccc3cc2C[C@H](C(=O)O)Oc2ncnc4sc(-c5ccc(F)cc5)c(c24)-c2c(C)c(Cl)c(c(Cl)c2C)O[C@H](CN2CCN(C)CC2)CO3)n1` [Example 109, (7R,16R)-10-({2-[bis(2,5,8,11-tetraoxatridecan-13-yl)amino]pyrimidin-4-yl}methoxy)-19,23-dichloro-1-(4-fluorophenyl)-20,22-dimethyl-16-[(4-methylpiperazin-1-yl)methyl]-7,8,15,16-tetrahydro-18,21-etheno-13,9-(metheno)-6,14,17-trioxa-2-thia-3,5-diazacyclononadeca[1,2,3-cd]indene-7-carboxylic Acid], the Ki is 2.43 nM at GST-MCL-1 (setting [3]) and 0.104 nM on GST-MCL-1 (setting [4]). The IC50 in assay [1] was determined as 16.6 nM; in assay [2], 12.8 nM.

On to `COCC(COC)Oc1ccc(-c2nccc(COc3ccc4cc3C[C@H](C(=O)O)Oc3ncnc5sc(-c6ccc(F)cc6)c(c35)-c3c(C)c(Cl)c(c(Cl)c3C)O[C@H](CN3CCN(C)CC3)CO4)n2)cc1` [Example 110, (7R,16R)-19,23-dichloro-10-[(2-{4-[(1,3-dimethoxypropan-2-yl)oxy]phenyl}pyrimidin-4-yl)methoxy]-1-(4-fluorophenyl)-20,22-dimethyl-16-[(4-methylpiperazin-1-yl)methyl]-7,8,15,16-tetrahydro-18,21-etheno-9,13-(metheno)-6,14,17-trioxa-2-thia-3,5-diazacyclononadeca[1,2,3-cd]indene-7-carboxylic Acid], for which the values for the Ki on GST-MCL-1 (setting [3]) and at GST-MCL-1 (setting [4]) were 49.9 nM and 9.63 nM, respectively. The IC50 came out at 0.306 nM in assay [1] and 1.03 nM in assay [2].

As a reminder, the Ki is the equilibrium dissociation constant of an inhibitor or competing ligand from its target. The IC50 is the concentration at which inhibition is half-maximal.
